25 compounds from ChEMBL document CHEMBL1141017, “Triterpene based compounds with potent anti-maturation activity against HIV-1” (Bioorg Med Chem Lett, 2008) can be followed below.

Series [1] concerns Human immunodeficiency virus 1. The experiment in a line: Antiviral activity against HIV1 NL4-3 infected in human MT4 cells assessed as cytoprotection against virus-induced cytopathic effect after 4 days by cell viability assay. The format is functional, organism-based. The settings on record: Human immunodeficiency virus 1, NL4-3, MT4, 96 h.
Series [2] is described as follows: Cytotoxicity against human MT4 cells after 4 days by cell viability assay. The class given is cell-based. The settings on record: read-out: TC50.
A short description of series [3]: Cytotoxicity against human PBMC by cell viability assay. The class given is cell-based. As to conditions: read-out: TC50 (the source's name).
Series [4] has as its system Human immunodeficiency virus 1. The experiment in a line: Antiviral activity against HIV1 3B replication in human PBMC assessed as reverse transcriptase activity after 7 days. The format is functional, organism-based. The settings on record: Human immunodeficiency virus 1, 3B, 168 h.
Series [5] in a line: Therapeutic index, ratio of TC50 for human MT4 cells to IC50 for HIV1 3B. The class given is cell-based.
A short description of series [6]: Metabolic stability in human liver microsomes assessed as compound remaining after 40 mins. The format is ADME, Microsome. As to conditions: read-out: Stability. In general terms: Liver microsomes are vesicles of endoplasmic reticulum, rich in cytochrome P450 enzymes.
A short description of series [7]: Metabolic stability in Sprague-Dawley rat liver microsomes assessed as compound remaining after 40 mins. The class given is ADME, Microsome. The settings on record: read-out: Stability.
Series [8] in a line: Therapeutic index, ratio of TC50 for human MT4 cells to EC50 for HIV1 NL43. The format is cell-based.

The term EC50 denotes the concentration that produces a half-maximal response. As for `C=C(C)[C@@H]1CC[C@]2(C(=O)N[C@@H](Cc3ccc(OC)cc3)C(=O)O)CC[C@]3(C)[C@H](CC[C@@H]4[C@@]5(C)CC[C@H](OC(=O)CC(C)(C)C(=O)O)C(C)(C)[C@@H]5CC[C@]43C)[C@@H]12`, the EC50 in series [1] is 9 nM. Besides, the CC50 at 96 h in series [2] turned out to be 5600 nM.
By IC50 is commonly meant the midpoint of a concentration-inhibition curve. Regarding `C=C(C)[C@@H]1CC[C@]2(C(=O)NCc3ccoc3)CC[C@]3(C)[C@H](CC[C@@H]4[C@@]5(C)CC[C@H](OC(=O)CC(C)(C)C(=O)O)C(C)(C)[C@@H]5CC[C@]43C)[C@@H]12`, the EC50 in series [1] came out at 7 nM. Besides, in series [3], the CC50 was over 10000 nM. The IC50 in series [4] stood at 7 nM. Besides, the CC50 at 96 h in series [2] is over 10000 nM.
Consider `C=C(C)[C@@H]1CC[C@]2(C(=O)NCc3ccc(N(C)C)cc3)CC[C@]3(C)[C@H](CC[C@@H]4[C@@]5(C)CC[C@H](OC(=O)CC(C)(C)C(=O)O)C(C)(C)[C@@H]5CC[C@]43C)[C@@H]12`, for which the selectivity ratio in series [5] and in series [8] was over 400 each time. Besides, the EC50 in series [1] stood at 30 nM. The remaining at 40 min in series [6] and in series [7] was 10% in each case. Besides, in series [2], the CC50 at 96 h came out at 1000 nM.
For the compound `C=C(C)[C@@H]1CC[C@]2(C(=O)N3Cc4ccccc4C3)CC[C@]3(C)[C@H](CC[C@@H]4[C@@]5(C)CC[C@H](OC(=O)CC(C)(C)C(=O)O)C(C)(C)[C@@H]5CC[C@]43C)[C@@H]12`, the EC50 in series [1] was 70 nM. Besides, in series [2], the CC50 at 96 h is over 10000 nM.
Take `C=C(C)[C@@H]1CC[C@]2(C(=O)NCc3nc4ccccc4s3)CC[C@]3(C)[C@H](CC[C@@H]4[C@@]5(C)CC[C@H](OC(=O)CC(C)(C)C(=O)O)C(C)(C)[C@@H]5CC[C@]43C)[C@@H]12`: in series [1], the EC50 is 33 nM. The CC50 in series [3] is over 10000 nM. Also, the IC50 in series [4] amounted to 3 nM. The CC50 at 96 h in series [2] worked out at 6800 nM.
Turning to `C=C(C)[C@@H]1CC[C@]2(C(=O)NCc3ccc(C(=O)NCCNC(C)=O)cc3)CC[C@]3(C)[C@H](CC[C@@H]4[C@@]5(C)CC[C@H](OC(=O)CC(C)(C)C(=O)O)C(C)(C)[C@@H]5CC[C@]43C)[C@@H]12`, the selectivity ratio in series [5] and in series [8] was over 400 each time. In series [1], the EC50 amounted to 30 nM. Moreover, the CC50 at 96 h in series [2] is 10000 nM.
In the case of `C=C(C)[C@@H]1CC[C@]2(C(=O)N[C@H](C(=O)O)c3ccc(OC)cc3)CC[C@]3(C)[C@H](CC[C@@H]4[C@@]5(C)CC[C@H](OC(=O)CC(C)(C)C(=O)O)C(C)(C)[C@@H]5CC[C@]43C)[C@@H]12`, the EC50 in series [1] was determined as 40 nM. In addition, the CC50 at 96 h in series [2] came to 6800 nM.
`C=C(C)[C@@H]1CC[C@]2(C(=O)NCc3ccc(C(=O)O)cc3)CC[C@]3(C)[C@H](CC[C@@H]4[C@@]5(C)CC[C@H](OC(=O)CC(C)(C)C(=O)O)C(C)(C)[C@@H]5CC[C@]43C)[C@@H]12`: the selectivity ratio in series [5] and in series [8] was over 400 each time. Besides, in series [1], the EC50 was determined as 165 nM. In addition, the remaining at 40 min in series [6] and in series [7] was 10% in each case. Further, the CC50 at 96 h in series [2] was 8900 nM.
Regarding `C=C(C)[C@@H]1CC[C@]2(C(=O)N[C@H]3CCc4ccccc43)CC[C@]3(C)[C@H](CC[C@@H]4[C@@]5(C)CC[C@H](OC(=O)CC(C)(C)C(=O)O)C(C)(C)[C@@H]5CC[C@]43C)[C@@H]12`, in series [1], the EC50 stood at 200 nM. The CC50 at 96 h in series [2] is over 10000 nM.
For `C=C(C)[C@@H]1CC[C@]2(C(=O)N[C@H]3CCCc4ccccc43)CC[C@]3(C)[C@H](CC[C@@H]4[C@@]5(C)CC[C@H](OC(=O)CC(C)(C)C(=O)O)C(C)(C)[C@@H]5CC[C@]43C)[C@@H]12` the same measures were 180 nM and over 10000 nM.
In the case of `C=C(C)[C@@H]1CC[C@]2(C(=O)NCc3nc4ccccc4[nH]3)CC[C@]3(C)[C@H](CC[C@@H]4[C@@]5(C)CC[C@H](OC(=O)CC(C)(C)C(=O)O)C(C)(C)[C@@H]5CC[C@]43C)[C@@H]12`, the EC50 in series [1] came out at 5 nM. Also, the CC50 in series [3] is over 10000 nM. For the same compound, the IC50 in series [4] is 1 nM. In addition, the CC50 at 96 h in series [2] worked out at 8600 nM.
On to `C=C(C)[C@@H]1CC[C@]2(C(=O)NCc3ncccc3C(=O)O)CC[C@]3(C)[C@H](CC[C@@H]4[C@@]5(C)CC[C@H](OC(=O)CC(C)(C)C(=O)O)C(C)(C)[C@@H]5CC[C@]43C)[C@@H]12`, for which, in series [1], the EC50 worked out at 129 nM. In addition, in series [2], the CC50 at 96 h is over 10000 nM.
Turning to `C=C(C)[C@@H]1CC[C@]2(C(=O)NCc3ccccc3C(=O)NCCNC(C)=O)CC[C@]3(C)[C@H](CC[C@@H]4[C@@]5(C)CC[C@H](OC(=O)CC(C)(C)C(=O)O)C(C)(C)[C@@H]5CC[C@]43C)[C@@H]12`, the selectivity ratio in series [5] and in series [8] was over 400 each time. In addition, the EC50 in series [1] was 5 nM. In series [2], the CC50 at 96 h is 9300 nM.
`C=C(C)[C@@H]1CC[C@]2(C(=O)NCCc3cccc(OC)c3)CC[C@]3(C)[C@H](CC[C@@H]4[C@@]5(C)CC[C@H](OC(=O)CC(C)(C)C(=O)O)C(C)(C)[C@@H]5CC[C@]43C)[C@@H]12`: the EC50 in series [1] amounted to 40 nM. In series [2], the CC50 at 96 h was over 10000 nM.
In the case of `C=C(C)[C@@H]1CC[C@]2(C(=O)NCc3cccc(C(=O)O)c3)CC[C@]3(C)[C@H](CC[C@@H]4[C@@]5(C)CC[C@H](OC(=O)CC(C)(C)C(=O)O)C(C)(C)[C@@H]5CC[C@]43C)[C@@H]12`, the selectivity ratio in series [5] and in series [8] was over 400 in each case. The EC50 in series [1] was determined as 480 nM. Besides, the remaining at 40 min in series [6] and in series [7] was 10% throughout. Besides, the CC50 at 96 h in series [2] came to 7600 nM.
With `C=C(C)[C@@H]1CC[C@]2(C(=O)NCc3ccc(C(=O)O)cn3)CC[C@]3(C)[C@H](CC[C@@H]4[C@@]5(C)CC[C@H](OC(=O)CC(C)(C)C(=O)O)C(C)(C)[C@@H]5CC[C@]43C)[C@@H]12`, the EC50 in series [1] stood at 1700 nM. Further, the CC50 at 96 h in series [2] was over 10000 nM.
For the compound `C=C(C)[C@@H]1CC[C@]2(C(=O)NCc3ccc4ccccc4n3)CC[C@]3(C)[C@H](CC[C@@H]4[C@@]5(C)CC[C@H](OC(=O)CC(C)(C)C(=O)O)C(C)(C)[C@@H]5CC[C@]43C)[C@@H]12`, in series [1], the EC50 was determined as 26 nM. The CC50 at 96 h in series [2] was over 10000 nM.
Turning to `C=C(C)[C@@H]1CC[C@]2(C(=O)NCc3cccc(C(=O)NCCNC(C)=O)c3)CC[C@]3(C)[C@H](CC[C@@H]4[C@@]5(C)CC[C@H](OC(=O)CC(C)(C)C(=O)O)C(C)(C)[C@@H]5CC[C@]43C)[C@@H]12`, the selectivity ratio in series [5] and in series [8] was over 400 in each case. The EC50 in series [1] came out at 10 nM. Further, in series [7], the remaining at 40 min was determined as 10%. Moreover, the CC50 at 96 h in series [2] is 10000 nM.
Consider `C=C(C)[C@@H]1CC[C@]2(C(=O)NCc3cccnc3C(=O)O)CC[C@]3(C)[C@H](CC[C@@H]4[C@@]5(C)CC[C@H](OC(=O)CC(C)(C)C(=O)O)C(C)(C)[C@@H]5CC[C@]43C)[C@@H]12`, for which the EC50 in series [1] was 24 nM. Further, the CC50 in series [3] is over 10000 nM. In series [4], the IC50 worked out at 30 nM. Further, in series [2], the CC50 at 96 h is over 10000 nM.
In the case of `C=C(C)[C@@H]1CC[C@]2(C(=O)NCCCc3ccc(OC)cc3)CC[C@]3(C)[C@H](CC[C@@H]4[C@@]5(C)CC[C@H](OC(=O)CC(C)(C)C(=O)O)C(C)(C)[C@@H]5CC[C@]43C)[C@@H]12`, the EC50 in series [1] came to 80 nM. Also, the CC50 at 96 h in series [2] worked out at 10000 nM.
In the case of `C=C(C)[C@@H]1CC[C@]2(C(=O)NCc3ccc(-c4ccccc4)cc3)CC[C@]3(C)[C@H](CC[C@@H]4[C@@]5(C)CC[C@H](OC(=O)CC(C)(C)C(=O)O)C(C)(C)[C@@H]5CC[C@]43C)[C@@H]12`, the selectivity ratio in series [5] and in series [8] was over 400 each time. In series [1], the concentration giving a half-maximal response (EC50) came out at 267 nM. Further, in series [6], the remaining at 40 min was 10%. Besides, in series [2], the CC50 at 96 h was over 10000 nM.
Take `C=C(C)[C@@H]1CC[C@]2(C(=O)NCc3ccccc3-c3ccccc3)CC[C@]3(C)[C@H](CC[C@@H]4[C@@]5(C)CC[C@H](OC(=O)CC(C)(C)C(=O)O)C(C)(C)[C@@H]5CC[C@]43C)[C@@H]12`: the selectivity ratio in series [5] and in series [8] was over 400 throughout. Besides, the EC50 in series [1] turned out to be 290 nM. In series [2], the CC50 at 96 h was over 10000 nM.
As for `C=C(C)[C@@H]1CC[C@]2(C(=O)NCc3ccccc3C)CC[C@]3(C)[C@H](CC[C@@H]4[C@@]5(C)CC[C@H](OC(=O)CC(C)(C)C(=O)O)C(C)(C)[C@@H]5CC[C@]43C)[C@@H]12`, the selectivity ratio in series [5] and in series [8] was over 400 each time. The EC50 in series [1] was found to be 85 nM. The remaining at 40 min in series [6] amounted to 10%. Also, the CC50 at 96 h in series [2] was over 10000 nM.
As for `C=C(C)[C@@H]1CC[C@]2(C(=O)NCCc3ccc(C(=O)O)cc3)CC[C@]3(C)[C@H](CC[C@@H]4[C@@]5(C)CC[C@H](OC(=O)CC(C)(C)C(=O)O)C(C)(C)[C@@H]5CC[C@]43C)[C@@H]12`, the EC50 in series [1] is 1000 nM. The CC50 at 96 h in series [2] stood at 1000 nM.
Consider `C=C(C)[C@@H]1CC[C@]2(C(=O)NCCCc3ccc(OC)c(OC)c3)CC[C@]3(C)[C@H](CC[C@@H]4[C@@]5(C)CC[C@H](OC(=O)CC(C)(C)C(=O)O)C(C)(C)[C@@H]5CC[C@]43C)[C@@H]12`, for which, in series [1], the EC50 stood at 20 nM. Also, in series [2], the CC50 at 96 h was 10000 nM.
